Results as given in ChEMBL document CHEMBL1201862, “PubChem BioAssay data set” (2004).
Active and inactive are the calls of the source.

Key:
[1] = target: T1, Sentrin-specific protease 7 (Homo sapiens, UniProt Q9BQF6); type: functional;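 also: Luminescence-based dose-response confirmation of ultra-high-throughput screening hits, measuring inhibition of SENP7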
T1 sequence (Q9BQF6 whole entry): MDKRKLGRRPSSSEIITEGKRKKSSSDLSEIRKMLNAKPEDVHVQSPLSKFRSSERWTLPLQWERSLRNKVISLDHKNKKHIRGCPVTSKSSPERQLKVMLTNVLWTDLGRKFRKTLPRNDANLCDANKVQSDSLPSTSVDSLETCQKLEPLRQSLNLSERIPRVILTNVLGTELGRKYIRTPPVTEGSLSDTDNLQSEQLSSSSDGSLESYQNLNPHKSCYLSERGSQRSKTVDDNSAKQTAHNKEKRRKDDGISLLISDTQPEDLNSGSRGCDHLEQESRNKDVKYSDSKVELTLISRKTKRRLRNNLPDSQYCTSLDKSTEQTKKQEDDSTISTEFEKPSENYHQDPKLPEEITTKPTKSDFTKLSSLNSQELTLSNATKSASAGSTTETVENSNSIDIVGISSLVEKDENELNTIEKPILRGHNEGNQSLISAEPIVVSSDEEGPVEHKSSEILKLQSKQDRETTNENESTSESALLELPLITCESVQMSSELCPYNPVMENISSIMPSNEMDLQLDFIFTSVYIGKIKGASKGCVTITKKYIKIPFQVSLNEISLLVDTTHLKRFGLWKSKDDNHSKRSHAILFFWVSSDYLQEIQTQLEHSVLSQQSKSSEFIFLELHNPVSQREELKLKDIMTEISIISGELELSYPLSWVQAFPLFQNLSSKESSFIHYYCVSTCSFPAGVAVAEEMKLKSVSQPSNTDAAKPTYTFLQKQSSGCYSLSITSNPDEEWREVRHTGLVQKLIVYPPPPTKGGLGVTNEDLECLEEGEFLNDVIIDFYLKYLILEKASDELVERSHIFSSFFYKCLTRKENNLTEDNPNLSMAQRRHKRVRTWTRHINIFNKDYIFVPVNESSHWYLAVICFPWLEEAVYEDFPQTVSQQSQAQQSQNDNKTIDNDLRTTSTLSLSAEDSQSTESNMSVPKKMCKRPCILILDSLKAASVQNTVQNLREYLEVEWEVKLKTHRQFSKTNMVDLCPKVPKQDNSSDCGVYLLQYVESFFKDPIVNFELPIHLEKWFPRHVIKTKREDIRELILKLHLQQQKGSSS

[2] = target: T2, Apoptotic protease-activating factor 1 (Homo sapiens, UniProt O14727); type: functional
T2 sequence (O14727 whole entry): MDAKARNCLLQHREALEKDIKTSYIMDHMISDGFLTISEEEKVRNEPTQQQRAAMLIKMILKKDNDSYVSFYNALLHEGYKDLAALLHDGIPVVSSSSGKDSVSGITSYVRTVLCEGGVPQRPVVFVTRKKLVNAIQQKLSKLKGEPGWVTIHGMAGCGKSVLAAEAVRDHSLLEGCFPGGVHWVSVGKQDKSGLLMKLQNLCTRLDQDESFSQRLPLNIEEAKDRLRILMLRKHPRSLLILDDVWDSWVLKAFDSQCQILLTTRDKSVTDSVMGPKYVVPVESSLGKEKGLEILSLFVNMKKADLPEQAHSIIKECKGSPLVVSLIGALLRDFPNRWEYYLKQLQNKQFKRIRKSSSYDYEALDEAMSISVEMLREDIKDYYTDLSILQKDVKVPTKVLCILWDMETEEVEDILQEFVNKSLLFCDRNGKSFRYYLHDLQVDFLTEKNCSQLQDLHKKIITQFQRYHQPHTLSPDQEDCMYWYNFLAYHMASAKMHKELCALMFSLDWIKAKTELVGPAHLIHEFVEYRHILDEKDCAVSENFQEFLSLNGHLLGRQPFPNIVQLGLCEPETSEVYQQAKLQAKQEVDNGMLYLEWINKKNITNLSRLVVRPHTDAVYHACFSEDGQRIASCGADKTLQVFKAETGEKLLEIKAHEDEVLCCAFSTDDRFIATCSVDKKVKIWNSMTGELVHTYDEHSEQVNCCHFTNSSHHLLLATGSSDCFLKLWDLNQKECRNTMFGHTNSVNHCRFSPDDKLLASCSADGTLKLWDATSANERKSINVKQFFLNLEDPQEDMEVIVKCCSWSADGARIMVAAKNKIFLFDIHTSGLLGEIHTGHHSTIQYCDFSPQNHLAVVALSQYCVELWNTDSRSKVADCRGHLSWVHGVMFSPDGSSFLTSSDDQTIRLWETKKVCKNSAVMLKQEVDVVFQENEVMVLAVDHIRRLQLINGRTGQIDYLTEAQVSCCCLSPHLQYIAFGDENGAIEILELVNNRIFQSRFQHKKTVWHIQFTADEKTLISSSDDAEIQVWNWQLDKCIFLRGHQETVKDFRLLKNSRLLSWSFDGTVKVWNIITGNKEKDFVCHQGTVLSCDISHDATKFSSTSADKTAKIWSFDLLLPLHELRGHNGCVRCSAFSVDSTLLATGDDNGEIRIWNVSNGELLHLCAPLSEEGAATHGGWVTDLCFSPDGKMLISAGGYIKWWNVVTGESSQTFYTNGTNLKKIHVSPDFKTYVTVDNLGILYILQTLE

[3] = target: T3, Sentrin-specific protease 8 (Homo sapiens, UniProt Q96LD8); type: functional;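 also: luminescence read-out of SENP8 inhibition, dose-response confirmation following an ultra-high-throughput screen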
T3 sequence (Q96LD8 whole entry): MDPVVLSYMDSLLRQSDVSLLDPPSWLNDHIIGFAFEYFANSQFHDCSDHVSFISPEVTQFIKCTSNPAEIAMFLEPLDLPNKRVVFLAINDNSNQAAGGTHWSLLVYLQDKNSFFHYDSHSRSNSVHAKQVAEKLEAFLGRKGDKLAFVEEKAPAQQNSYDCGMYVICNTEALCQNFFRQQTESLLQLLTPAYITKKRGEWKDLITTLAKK

INS1 = assay: beta cell apoptosis inhibitors, cytokine rescue, dose response, luminescence, retest (AID 449756); type: functional, cell-based; conditions: Rattus norvegicus;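 also: cell death triggered by IL-1 beta plus TNF-alpha plus IFN-gamma mixture; protective hits raise ATP signal compared with cytokine alone wells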
BJ [4] = assay: cells; type: functional, cell-based; conditions: Homo sapiens
[5] = target: T4, Tyrosyl-DNA phosphodiesterase 2 (Homo sapiens, UniProt O95551); assay: human TDP2 enzyme inhibitors, dose response, biochemical, epi absorbance, IC50 (AID 743297)
T4 sequence (O95551 whole entry): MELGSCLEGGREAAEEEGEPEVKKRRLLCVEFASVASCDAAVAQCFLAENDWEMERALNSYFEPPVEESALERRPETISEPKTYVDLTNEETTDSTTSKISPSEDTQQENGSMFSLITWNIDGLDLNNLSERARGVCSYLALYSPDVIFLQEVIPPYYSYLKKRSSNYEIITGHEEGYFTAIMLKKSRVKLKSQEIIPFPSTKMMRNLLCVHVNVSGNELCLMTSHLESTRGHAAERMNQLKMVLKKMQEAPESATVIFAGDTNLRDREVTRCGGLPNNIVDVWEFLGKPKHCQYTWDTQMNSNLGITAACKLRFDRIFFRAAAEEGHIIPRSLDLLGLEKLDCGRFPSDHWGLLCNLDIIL

BJ [6] = assay: cytotoxicity toward BJ-TERT-LT-ST fibroblasts, dose response, cell-based, RAS-independent, luminescence (AID 1935); type: functional; conditions: Homo sapiens;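 also: BJ fibroblasts immortalized with TERT plus LT and ST oncogenes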

Compound | IC50 [1] | IC50 [2] | IC50 [3] | AC50 (INS1) | EC50 (BJ [4]) | IC50 [5] | EC50 (BJ [6])
CCc1cc[n+](C2=C([N-]S(=O)(=O)c3cccs3)C(=O)c3ccccc3C2=O)cc1 | 8.3 µM (active) | 11.2 µM (active) | 8.48 µM (active) | 2.76 µM (active) | – | – | –
O=C(NC1=C(NC2CCS(=O)(=O)C2)C(=O)c2ccccc2C1=O)c1ccccc1 (stereo not given) | – | 2.1 µM (active) | – | – | 3.28 µM (active) | 28.3 µM (inactive) | > 75 µM (not active)
CCCC(=O)NC(c1ccc(N(C)C)cc1)c1ccc2cccnc2c1O (stereo not given) | – | – | – | 0.598 µM (active) | 3.42 µM (active) | – | 2.72 µM (active)
COc1ccccc1N(/N=C1\Sc2ccccc2C1=O)C(C)=O | 6.78 µM (active) | 13.3 µM (active) | 5.39 µM (active) | – | – | 20 µM (inactive) | –
